“And” between values parts separate entries of the source, which are not always exact repeats. Identical values can stand only once. Like-named read-outs stand apart in the source and are kept apart here.
Columns and labels:
[1] = system: BAX gene expression in lung cancer cell lines; experiment: qRT-PCR gene expression, BAX; assay type: cell-based, human; conditions: treated lung cancer cell line vs negative control; order 7g, Dox, 7a
Description: (§1) The RNeasy Mini Kit (Qiagen, Hilden, Germany), augmented with a DNaseI (Qiagen) digestion step, was employed to extract total RNA from lung cancer cell lines following the manufacturer's procedure. The isolated total RNA was treated with one unit of RQ1 RNAse-free DNAse (Invitrogen, Germany) to eliminate DNA remnants, re-suspended in DEPC-treated water, and quantified photometrically at 260 nm. The purity of total RNA was evaluated using the 260/280 nm ratio, which ranged from 1.8 to 2.1.[27]
(§2) Furthermore, integrity was confirmed using ethidium bromide-stained examination of 28S and 18S bands via formaldehyde-containing agarose gel electrophoresis. Aliquots were utilized immediately for reverse transcription (RT); otherwise, they were preserved at −80 °C.
(§3) The poly(A) + RNA extracted from the lung cancer cell lines was reverse transcribed into the cDNA in a total amount of 20 μl utilizing the Revert Aid TM First Strand cDNA Synthesis Kit (Fermentas, Germany). A total of 5 μg of RNA was utilized with a master mix. The master mix comprised 50 mM MgCl2, 10× RT buffer (50 mM KCl; 10 mM Tris–HCl; pH 8.3), 10 mM of each dNTP, 50 μM oligo-dT primer, 20 IU ribonuclease inhibitor (50 kDa recombinant enzyme to suppress RNase activity), and 50 IU MuLV reverse transcriptase. Each sample mixture was centrifuged for 30 seconds at 1000 g and thereafter transferred to the thermocycler. The RT reaction was conducted at 25 °C for 10 minutes, subsequently at 42 °C for 1 hour, and concluded with a denaturation phase at 99 °C for 5 minutes. Subsequently, the reaction tubes containing RT-prepared samples were rapidly chilled in an ice chamber prior to cDNA amplification via the quantitative real-time polymerase chain reaction (qRT-PCR).
(§4) The cDNA copy number of lung cancer cell lines was determined using the StepOne™ Real-Time PCR System from Applied Biosystems (Thermo Fisher Scientific, Waltham, MA, USA). […]
(§5) The reaction protocol was divided into three stages. […] The relative quantification of the target gene to the reference gene was assessed using the 2^−ΔΔCT method.[29–31]

PC3 (prostate cell line) = experiment: MTT cytotoxicity assay, PC3; assay type: cell-based; conditions: Homo sapiens, read-out: (%) Mortality PC3
Description: (§6) Using specific human cancer cell lines, the anti-proliferative effectiveness of compounds 7a–j was evaluated in an in vitro assay. The anti-cancer activity of these compounds (7a–j) on various cancer cell lines, including PC3 (Prostate cell line), A549 (Lung carcinoma), PACA2 (Pancreatic cancer cell line) and BJ1 (normal skin fibroblast), was investigated in this study using the 3-(4,5-dimethylthiazol-2-yl)-2,5-diphenyltetrazolium bromide (MTT) test. Doxorubicin (Dox) was the standard medication used as a positive control.
(§7) In the initial screening trial, a single dosage concentration of 100 μg ml^−1 was applied for 48 hours. The cytotoxicity of the treated cells was determined by calculating the cell death percentage (% mortality) as a percentage of untreated cells (Table 2).
(§8) All incubations were performed at 37 °C in a 5% CO2 incubator with a 95% humidified environment (Sheldon, TC2323; Cornelius, OR, USA). 96-well micro titer polypropylene plates were seeded with cells at a density of 10^4 cells per well in complete DMEM media, and the cells were allowed to adhere for 24 hours. After the media was aspirated, the tested compounds were added to the cells in a single dose of 100 μg ml^−1 in DMSO. Each well received 40 μl of MTT salt (2.5 g ml^−1) following a 48 hour incubation period. 200 μl of 10% sodium dodecyl sulfate (SDS) was added to each well after the reaction ended, and any formazan crystals that could have been produced were dissolved by two hours of incubator heating to 37 °C. The amount of formazan product was measured at 595 nm using a microplate reader (Bio-Rad Laboratories, model 3350, California, USA) with a reference wavelength of 690 nm, serving as a backdrop. Rather than the drugs under investigation, the medium was applied to the untreated cells (negative control). The examined compounds were dissolved in dimethylsulfoxide (DMSO), and the final concentration in the cells was less than 0.2%. For each compound and the control, the solvent concentration was the same.

[2] = system: PACA2 (pancreatic cancer cell line); experiment: MTT cytotoxicity assay, PACA2; assay type: cell-based; conditions: Homo sapiens; for cytotoxicity at 100 µg/mL: read-out: (%) Mortality PACA2
Description: as §6, §7, §8

[3] = system: lung cancer cell lines (A549); experiment: DNA fragmentation assay (diphenylamine reaction); assay type: cell-based, human; conditions: for DNA fragmentation Change: change vs negative control; for DNA fragmentation% (M ± SEM): negative control 12.54 ± 0.45
Description: The DNA fragmentation assay in lung cancer cell lines was performed in accordance with the protocol established by Yawata (1998)[34] with some modifications. […] The low-molecular-weight genomic DNA was extracted as described in Yawata (1998).[34] Approximately 1 × 10^6 cells of each treatment were plated. All the cells (including floating cells) were harvested and washed with Dulbecco's phosphate buffered saline. The cancer cells were lysed with the lysis buffer containing 10 mM Tris (pH 7.4), 150 mM NaCl, 5 mM ethylenediaminetetraacetic acid (EDTA), and 0.5% Triton X-100 for 30 min on ice. Lysates were vortexed and cleared by centrifugation at 10 000 g for 20 min. Fragmented DNA in the supernatant was extracted with an equal volume of a neutral phenol : chloroform : isoamyl alcohol mixture (25 : 24 : 1) and analyzed electrophoretically on 2% agarose gels containing 0.1 μg ml^−1 ethidium bromide.
The lung cancer cell lines (A549) were used to determine the quantitative profile of the DNA fragmentation. […] The cancer cells were lysed in 0.5 ml of lysis buffer containing 10 mM Tris–HCl (pH 8), 1 mM EDTA, and 0.2% Triton X-100 and centrifuged at 10 000 rpm (Eppendorf) for 20 min at 4 °C. The pellets were re-suspended in 0.5 ml of lysis buffer. To the pellets (P) and the supernatants (S), 0.5 ml of 25% tri-chloroacetic acid (TCA) was added and incubated at 4 °C for 24 h. The cells were then centrifuged for 20 min at 10 000 rpm (Eppendorf) at 4 °C and the pellets were suspended in […] of 5% TCA, followed by incubation at 83 °C for 20 min. Subsequently, to each cell sample, […] of diphenylamine (DPA) solution [150 mg DPA in 10 ml glacial acetic acid, […] of sulfuric acid and […] acetaldehyde (16 mg ml^−1)] was added and incubated at room temperature for 24 h (Gibb et al.,[35] 1997). The proportion of the fragmented DNA was calculated from the absorbance values at 600 nm wavelength using the formula:% fragmented DNA = [OD(S)/[OD(S) + OD(P)]] × 100(OD: optical density, S: supernatants, P: pellets).

[4] = system: p53 gene expression in lung cancer cell lines; experiment: qRT-PCR gene expression, p53; assay type: cell-based, human; conditions: treated lung cancer cell line vs negative control; order 7g, Dox, 7a
Description: as §1, §2, §3, §4, §5

A549 (lung carcinoma) = experiment: MTT cytotoxicity assay, A549; assay type: cell-based; conditions: Homo sapiens; for cytotoxicity at 100 µg/mL: read-out: (%) Mortality A549; for IC50: 48 hour incubation
Description: as §6, §7, §8

[5] = system: BCL-2 gene expression in lung cancer cell lines; experiment: qRT-PCR gene expression, BCL-2; assay type: cell-based, human; conditions: treated lung cancer cell lines vs negative control; descending order 7g, Dox, 7a
Description: as §1, §2, §3, §4, §5

[6] = PaCa-2, 100 μg ml^−1, 48 hours, MTT
[7] = A549, 100 μg ml^−1, 48 hours, MTT

SMILES	BAX (pro-apoptotic gene) expression level [1]	cytotoxicity at 100 µg/mL (PC3 (prostate cell line); 100 μg ml^−1, 48 hours, MTT)	cytotoxicity at 100 µg/mL [2, 6]	DNA fragmentation Inhibition% [3]	DNA fragmentation Change [3]	DNA fragmentation% (M ± SEM) [3]	p53 (pro-apoptotic gene) expression level [4]	cytotoxicity at 100 µg/mL (A549 (lung carcinoma); [7])	IC50 (A549 (lung carcinoma); A549, MTT)	BCL-2 (anti-apoptotic gene) expression level [5]	cytotoxicity at 100 µg/mL (PC3 (prostate cell line); 48 h)	cytotoxicity at 100 µg/mL ([2]; PaCa-2, 48 h)	IC50 ([2]; PaCa-2, MTT, 48 hour incubation)	cytotoxicity at 100 µg/mL (A549 (lung carcinoma); A549, 48 h)
COc1ccc(-c2nn(-c3ccccc3)c3nc(=O)c(C)nn23)cc1 [Compound 7g, 3-(4-Methoxyphenyl)-6-methyl-1-phenyl-[1,2,4]triazolo[4,3-b][1,2,4]triazin-7(1H)-one]	elevated	14.6 ± 0.92%	13.4 ± 1.15%	17.74%	13.03	25.57 ± 0.94% and 25.57 ± 0.94^b %	elevated	82.3 ± 0.82%	40.1 µM	diminished				
Cc1nn2c(C)nn(-c3ccc([N+](=O)[O-])cc3)c2nc1=O [Compound 7a, 3,6-Dimethyl-1-(4-nitrophenyl)-[1,2,4]triazolo[4,3-b][1,2,4]triazin-7(1H)-one]	elevated	28.2 ± 0.25%	20.4 ± 0.11%	27.78%	20.24	32.78 ± 1.35% and 32.78 ± 1.35^a %	elevated	80.4 ± 0.66%	36.6 µM	diminished				
COc1cccc2c1C(=O)c1c(O)c3c(c(O)c1C2=O)C[C@@](O)(C(=O)CO)C[C@@H]3O[C@H]1C[C@H](N)[C@H](O)[C@H](C)O1 [Dox, Doxorubicin, reference compound]	elevated			19.69%	15.84		elevated		43.8 µM	diminished	100%	100%	52.1 µM	100%
